In US20150313934A1, “Use of PVP-Iodine Liposomes for Treatment of Herpes” (priority 2003, published 2015):

Tests used:
[1] = test system: Human ciliated epithelium cells
Protocol: The toleration of liposomal PVP-iodine solutions for nasal applications was studied by investigating the influence of different test substances on ciliated epithelium cells, the most sensible cells of the mucous membrane. A cytotoxic damage of these cells which would cause a restriction of the niucoclliar clearance can. be determined by a detectable decrease of the ciliary vibration.
Human ciliated epithelium cells were analysed by an in-vitro method which enables the determination of the ciliary activity or ciliary vibration. The corresponding cells were exposed and incubated with 100 je.I test substance at a temperature of 37 C. After an incubation period of 5 minutes the ciliary vibration, was measured.
By using this in-vltro method a nutriant solution (Dulbeco) as standard, a 0.2% chlorohexidine solution (typical antiseptic agent), conventional polyvidone iodine solutions (Betaisodona) .of different concentrations (5.0%, 2.5% and 1.25% PVP-iodine) and a liposomal solution containing 4.5% of PVP-iodine were tested.

human viruses = conditions: aqueous solution mixed with viral suspensions; cited from earlier work

Molecule	ciliary activity / ciliary vibration [1]	antiviral effect on viral suspensions (human viruses)
N=C(NCCCCCCNC(=N)NC(=N)Nc1ccc(Cl)cc1)NC(=N)Nc1ccc(Cl)cc1 [chlorohexidine]	decrease of the measured ciliary vibration	
poly(1-vinyl-2-pyrrolidin-2-on)-iodine complex [PVP-iodine]		effective antiviral compound
